From patent publication US20100048543A1, “PYRIMIDINE COMPOUNDS HAVING TIES (TEK) INHIBITORY ACTIVITY” (ASTRAZENECA AB, priority 2005, published 2010)

Tests used:
[1] = target: T1, Tie2 receptor tyrosine kinase (Homo sapiens, UniProt Q02763); test: In vitro receptor tyrosine kinase inhibition assay, Test (a) (ELISA); type: biochemical; conditions: recombinant human Tie2 kinase domain lysate, ATP 5 micromolar (or Km)
T1 construct: consist of only the intracellular portion C-terminal portion of the respective receptor, within which is found the kinase domain; made in house; host or cells: baculovirus/Sf21 insect cells (or alternative equivalent), used as cleared lysate
T1 sequence (Q02763 770-1124 limits assumed): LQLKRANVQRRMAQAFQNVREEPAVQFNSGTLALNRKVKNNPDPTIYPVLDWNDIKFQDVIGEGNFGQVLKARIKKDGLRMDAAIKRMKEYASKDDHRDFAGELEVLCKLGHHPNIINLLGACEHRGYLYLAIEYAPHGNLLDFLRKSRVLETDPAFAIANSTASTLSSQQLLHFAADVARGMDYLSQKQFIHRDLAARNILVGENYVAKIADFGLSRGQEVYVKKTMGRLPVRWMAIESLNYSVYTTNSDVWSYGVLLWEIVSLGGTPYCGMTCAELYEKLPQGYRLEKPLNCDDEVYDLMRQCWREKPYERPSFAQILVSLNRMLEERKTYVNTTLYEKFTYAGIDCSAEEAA
Description: a. In vitro Receptor Tyrosine Kinase Inhibition Assay
To test for inhibition of Tie2 receptor tyrosine kinase, compounds are evaluated in a non-cell based protein kinase assay by their ability to inhibit the protein kinase enzyme phosphorylation of a tyrosine containing polypeptide substrate in an ELISA based microtitre plate assay. In this particular case, the assay was to determine the IC50, for three different recombinant human tyrosine kinases Tie2, KDR and Flt.
To facilitate production of the tyrosine kinases, recombinant receptor genes were produced using standard molecular biology cloning and mutagenesis techniques. These recombinant proteins fragments encoded within these genes consist of only the intracellular portion C-terminal portion of the respective receptor, within which is found the kinase domain. The recombinant genes encoding the kinase domain containing fragments were cloned and expressed in standard baculovirus/Sf21 system (or alternative equivalent).
Lysates were prepared from the host insect cells following protein expression by treatment with ice-cold lysis buffer (20 mM N-2-hydroxyethylpiperizine-N′-2-ethanesulphonic acid (HEPES) pH7.5, 150 mM NaCl, 10% glycerol, 1% Triton X-100, 1.5 mM MgCl2, 1 mM ethylene glycol-bis (β-aminoethyl ether) N′,N′,N′,N′-tetraacetic acid (EGTA), plus protease inhibitors and then cleared by centrifugation. Tie2, KDR and Flt1 lysates were stored in aliquots at −80° C.
Constitutive kinase activity of these recombinant proteins was determined by their ability to phosphorylate a synthetic peptide (made up of a random co-polymer of Glutamic Acid, Alanine and Tyrosine in the ratio of 6:3:1). Specifically, Nunc Maxisorb™ 96-well immunoplates were coated with 100 microlitres of synthetic peptide Sigma P3899 (1 mg/ml stock solution in PBS diluted 1:500 in PBS prior to plate coating) and incubated at 4° C. overnight. Plates were washed in 50 mM HEPES pH 7.4 at room temperature to remove any excess unbound synthetic peptide.
The immobilised phospho-peptide product of the reaction was detected by immunological methods. Firstly, plates were incubated for 4 hours at room temperature with murine monoclonal anti-phosphotyrosin-HRP (Horseradish Peroxidase) conjugated antibodies (4G10 from Upstate Biotechnology UBI 16-105). Following extensive washing with PBS-T, HRP activity in each well of the plate was measured colorimetrically using 22′-Azino-di-[3-ethylbenzthiazoline sulfonate (6)]diammonium salt crystals ABTS (Sigma P4922—prepared as per manufactures instructions) as a substrate incubated for 30-45 minutes to allow colour development, before 100 ul of 1M H2SO4 was added to stop the reaction.
Quantification of colour development and thus enzyme activity was achieved by the measurement of absorbance at 405 nm on a Molecular Devices ThermoMax microplate reader. Kinase inhibition for a given compound was expressed as an IC50 value. This was determined by calculation of the concentration of compound that was required to give 50% inhibition of phosphorylation in this assay. The range of phosphorylation was calculated from the positive (vehicle plus ATP) and negative (vehicle minus ATP) control values.

[2] = target: T2, Tie2 receptor (Homo sapiens, UniProt Q02763); test: Cellular Tie2 autophosphorylation assay, Test (b); type: cell-based; conditions: Ang1 ligand stimulated whole cells (e.g. EA.hy926/B3), immunoprecipitation/western blot; read-out: IC50 (μM) Test (b): Inhibition of autophosphorylation of Tie2 receptor tyrosine kinase
T2 construct: one can use natural cell lines or primary cells which are known to express the receptor of choice; endogenous in cells; host or cells: EA.hy926/B3 cells (HUVEC named as an alternative)
T2 sequence (Q02763 23-1124): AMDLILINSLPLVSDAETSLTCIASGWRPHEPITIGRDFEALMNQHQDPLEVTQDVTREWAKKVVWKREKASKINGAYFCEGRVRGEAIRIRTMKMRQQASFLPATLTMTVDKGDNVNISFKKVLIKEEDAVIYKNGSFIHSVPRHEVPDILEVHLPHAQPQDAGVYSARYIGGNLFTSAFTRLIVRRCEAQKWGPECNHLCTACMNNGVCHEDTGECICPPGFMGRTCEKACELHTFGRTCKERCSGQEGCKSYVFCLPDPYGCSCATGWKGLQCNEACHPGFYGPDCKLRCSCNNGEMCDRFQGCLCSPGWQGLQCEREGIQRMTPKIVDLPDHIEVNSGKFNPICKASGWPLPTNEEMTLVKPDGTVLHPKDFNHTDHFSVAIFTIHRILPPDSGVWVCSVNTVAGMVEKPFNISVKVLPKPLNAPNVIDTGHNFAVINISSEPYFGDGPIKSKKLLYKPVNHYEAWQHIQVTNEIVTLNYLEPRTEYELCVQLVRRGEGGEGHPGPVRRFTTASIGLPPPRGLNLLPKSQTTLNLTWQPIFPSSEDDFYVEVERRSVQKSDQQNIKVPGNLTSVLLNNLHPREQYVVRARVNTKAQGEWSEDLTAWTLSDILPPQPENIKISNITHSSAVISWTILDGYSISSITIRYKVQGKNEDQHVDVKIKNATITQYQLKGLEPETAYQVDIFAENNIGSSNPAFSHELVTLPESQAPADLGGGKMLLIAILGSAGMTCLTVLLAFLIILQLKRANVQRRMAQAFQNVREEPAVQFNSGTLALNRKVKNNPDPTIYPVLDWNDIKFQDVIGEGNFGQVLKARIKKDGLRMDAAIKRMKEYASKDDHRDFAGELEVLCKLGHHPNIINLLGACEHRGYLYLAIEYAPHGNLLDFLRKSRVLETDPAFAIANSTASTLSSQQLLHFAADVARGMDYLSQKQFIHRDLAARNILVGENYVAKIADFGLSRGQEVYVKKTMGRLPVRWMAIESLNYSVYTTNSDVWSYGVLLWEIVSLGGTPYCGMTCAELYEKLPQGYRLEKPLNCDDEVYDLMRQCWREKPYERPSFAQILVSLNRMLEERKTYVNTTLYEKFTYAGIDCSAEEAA
Text: b. Cellular Tie2 Autophosphorylation Assay
This assay is based on measuring the ability of compounds to inhibit autophosphorylation of the Tie2 receptor which normally leads to the production of “activated” receptor that in turn initiates the particular signal transduction pathways associated with the receptor function.
Autophosphorylation can be achieved by a number of means. It is known that expression of recombinant kinase domains in baculoviral systems can lead to the production of phosphorylated and activated receptor. It is also reported that over expression of receptors in recombinant cell lines can itself lead to receptor autophosphorylation in the absence of the ligand (Heldin C-H. 1995 Cell: 80, 213-223; Blume-J. P, Hunter T. 2001 Nature: 411, 355-65). Furthermore, there are numerous literature examples in which chimaeric receptors have been constructed. In these cases the natural, external cell surface domain of the receptor has been replaced with that of a domain which is known to be readily dimerised via the addition of the appropriate ligand (e.g. TrkA-Tie2/NGF ligand (Marron, M. B., et al., 2000 Journal of Biological Chemistry: 275:39741-39746) or C-fins-Tie-1/CSF-1 ligand (Kontos, C. D., et al., 2002 Molecular and Cellular Biology: 22, 1704-1713). Thus when the chimaeric receptor expressed in a host cell line and the respective ligand is added, this induces autophosphorylation of the chimeric receptor's kinase domain. This approach has the advantage of often allowing a known (and often easily obtained) ligand to be used instead of having to identify and isolate the natural ligand for each receptor of interest.
Naturally if the ligand is available one can use natural cell lines or primary cells which are known to express the receptor of choice and simply stimulate with ligand to achieve ligand induced phosphorylation. The ability of compounds to inhibit autophosphorylation of the Tie2 receptor, which is expressed for example in EA.hy926/B3 cells (supplied by J. McLean/B. Tuchi, Univ. of N. Carolina at Chapel Hill, CB-4100, 300 Bynum Hall, Chapel Hill, N.C. 27599-41000, USA) or primary HUVEC (human umbilical vein endothelial cells—available from various commercial sources), can measured by this assay.
Natural Ang1 ligand can be isolated using standard purification technology from either tumour cell supernatants or alternatively the Ang1 gene can be cloned and expressed recombinantly using stand molecular biology techniques and expression systems. In this case one can either attempt to produce the ligand either in its native state or as recombinant protein which for example may have been genetically engineered to contain additional of purification tags (eg. polyhistidine peptides, antibody Fc domains) to facilitate the process.
Using the ligand stimulation of either EA.hy926/B3 or HUVEC cellular Tie2 receptor as the example, a Ang1 ligand stimulated cellular receptor phosphorylation assay can be constructed which can be used to analyse to determine the potential of compounds to inhibit this process. For example EA.hy926/B3 cells were grown in the appropriate tissue culture media plus 10% foetal calf serum (FCS) for two days in 6 well plates starting with an initial seeding density of 5×10^5 cells/well. On the third day the cells were serum starved for a total of 2 hours by replacing the previous media with media containing only 1% FCS. After 1 hour 40 minutes of serum starvation the media was removed and replace with 1 ml of the test compound dilutions (compound dilutions made in serum starvation media yet keeping the DMSO concentration below 0.8%). After 1.5 hours of serum starvation orthovanidate was added to a final concentration of 0.1 mM for the final 10 minutes of serum starvation. […]

| SMILES | IC50 [1] | IC50 [2] |
| --- | --- | --- |
| Cc1ccc(CNC(=O)Nc2cccc(C#Cc3cnc(N)nc3)c2)o1 [Example 6, N-{3-[(2-aminopyrimidin-5-yl)ethynyl]phenyl}-N′-[(5-methyl-2-furyl)methyl]urea] | 20 µM | 1.7 µM |
| Nc1ncc(C#Cc2cccc(NC(=O)NC(CCO)c3ccccc3)c2)cn1 (stereo not drawn) [Example 12, N-{3-[(2-aminopyrimidin-5-yl)ethynyl]phenyl}-N′-(3-hydroxy-1-phenylpropyl)urea] | 25 µM | 1.3 µM |
| Cc1ccc(CNC(=O)Nc2cccc(C#Cc3cnc(NCCCN4CCCCC4)nc3)c2)o1 [Example 14, N-[(5-methyl-2-furyl)methyl]-N′-[3-({2-[(3-piperidin-1-ylpropyl)amino]pyrimidin-5-yl}ethynyl)phenyl]urea] | 20 µM | 0.38 µM |
| Nc1ncnc(N)c1C#Cc1cccc(NC(=O)NCc2cccnc2)c1 [Example 45, N-{3-[(4,6-diaminopyrimidin-5-yl)ethynyl]phenyl}-N′-(pyridin-3-ylmethyl)urea] | 3.3 µM | 0.2 µM |
| Nc1ncnc(N)c1C#Cc1cccc(NC(=O)NCC2CCCO2)c1 (stereo not drawn) [Example 47, N-{3-[(4,6-diaminopyrimidin-5-yl)ethynyl]phenyl}-N′-(tetrahydrofuran-2-ylmethyl)urea] | 1.5 µM | 1.9 µM |
| Cc1conc1CNC(=O)Nc1cccc(C#Cc2c(N)ncnc2N)c1 [Example 50, N-{3-[(4,6-diaminopyrimidin-5-yl)ethynyl]phenyl}-N′-[(4-methylisoxazol-3-yl)methyl]urea] | 9 µM | 3.6 µM |
